Laboratory results from patent publication EP3650451A1, “COMPOUNDS AND THEIR USES AS FLUORESCENT PROBES” (Consejo Superior de Investigaciones Cientificas, priority 2017, dated 2019).

What was measured:
[1] = Photophysical characterization: absorption and fluorescence spectra; assay type: physicochemical; conditions: for λfl: Fluorescence peak wavelength: excitation at 490 nm; for φf: Quantum yield: reference PM567 in ethanol
Procedure: The photophysical characterization of probes 3 and 4 was carried out analyzing the corresponding absorption and fluorescence spectra in the UV-visible region of the spectrum.
Its photophysical behavior is dependent on the degree of substitution of the BODIPY, since the alkylation of the chromatophore induces sufficient steric hindrance to reduce the free rotation of the 8-mesityl group, a process that entails a significant reduction in fluorescence efficiency. Thus, probe 4 in water stands out for having a high molar absorption coefficient (3.8 × 10^4 M^-1 cm^-1 at 499 nm) and a very efficient fluorescence emission at 511 nm, with a quantum yield of up to 80%.

[2] = Stability in water: time evolution in D2O followed by 1H NMR (hydrolysis); assay type: physicochemical; conditions: 15 mM solution in D2O at 25 °C, read-out: t1/2 (hydrolysis) (converted)
Procedure: One of the critical factors that conditions the viability and applicability of functional dyes 3 and 4 as fluorescent mitochondrial probes is their stability in water, since these compounds contain two potentially labile B-O bonds linking the fluorophore with the carnitine substituent. This stability was determined analyzing the time evolution of 3 and 4 in a 15 mM solution in D2O at 25 °C using ^1H NMR. This technique makes it possible not only to define their stability, but also to identify the possible degradation products (Diagram 2). Both probes are hydrolyzed, generating free carnitine and the corresponding 4,4-dihydroxy-BODIPY derivatives 5 and 6. [drawing 8]
Compound 3 is quickly hydrolyzed (t1/2 = 10 min); however, the greater substitution of the tetramethylated derivative in 4 gives it greater stability (t1/2 = 6 h), which promotes its use as a fluorescent marker in live cells. Contrary to what might be believed, the generation of free carnitine and of the corresponding BODIPY derivatives 5 and 6 at physiological pH is, indeed, an advantage for its application in cell labels. Thus, (R)-carnitine is incorporated into the mitochondrial metabolism, while the boron of the hydrolyzed BODIPY can covalently bond to poly-hydroxilated molecules (for example, saccharides and glycoproteins), generating cyclic boronic esters. […]

## CC1=CC(C)=[N+]2C1=C(c1c(C)cc(C)cc1C)c1c(C)cc(C)n1[B-]21OC(=O)C[C@H](C[N+](C)(C)C)O1 (stereo partly shown) [Compound 4]
[1]
  photostability: high photostability
[1]; Acetone
  kfl: Radiative decay constant: 1.27 10^8s^- 1
  knr: Non-Radiative decay constant: 0.16 10^8s^- 1
  Δv: Stokes shift: 504 cm⁻¹
  εmax: Molar extinction coefficient at the absorption peak: 5.1 × 10^4 (M^-1 cm^- 1)
  λab: Absorption peak wavelength: 501 nm
  τ: Fluorescence lifetime: 7.00 ns
  λfl: Fluorescence peak wavelength: 514 nm
  φf: Quantum yield: 0.89
[1]; Acetonitrile
  kfl: Radiative decay constant: 1.21 10^8s^- 1
  knr: Non-Radiative decay constant: 0.20 10^8s^- 1
  Δv: Stokes shift: 469 cm⁻¹
  εmax: Molar extinction coefficient at the absorption peak: 4.9 × 10^4 (M^-1 cm^- 1)
  λab: Absorption peak wavelength: 500 nm
  τ: Fluorescence lifetime: 7.12 ns
  λfl: Fluorescence peak wavelength: 512 nm
  φf: Quantum yield: 0.86
[1]; Chloroform
  kfl: Radiative decay constant: 1.36 10^8s^- 1
  knr: Non-Radiative decay constant: 0.22 10^8s^- 1
  Δv: Stokes shift: 424 cm⁻¹
  εmax: Molar extinction coefficient at the absorption peak: 4.8 × 10^4 (M^-1 cm^- 1)
  λab: Absorption peak wavelength: 504 nm
  τ: Fluorescence lifetime: 6.32 ns
  λfl: Fluorescence peak wavelength: 514 nm
  φf: Quantum yield: 0.86
[1]; Ethanol
  kfl: Radiative decay constant: 1.22 10^8s^- 1
  knr: Non-Radiative decay constant: 0.18 10^8s^- 1
  Δv: Stokes shift: 427 cm⁻¹
  εmax: Molar extinction coefficient at the absorption peak: 5.1 × 10^4 (M^-1 cm^- 1)
  λab: Absorption peak wavelength: 502 nm
  τ: Fluorescence lifetime: 7.10 ns
  λfl: Fluorescence peak wavelength: 513 nm
  φf: Quantum yield: 0.87
[1]; Water
  kfl: Radiative decay constant: 1.14 10^8s^- 1
  knr: Non-Radiative decay constant: 0.23 10^8s^- 1
  Δv: Stokes shift: 470 cm⁻¹
  εmax: Molar extinction coefficient at the absorption peak: 3.8 × 10^4 (M^-1 cm^- 1)
  λab: Absorption peak wavelength: 499 nm
  τ: Fluorescence lifetime: 7.30 ns
  λfl: Fluorescence peak wavelength: 511 nm
  φf: Quantum yield: 0.83
[1]; concentrations as high as 10^-4 M
  tendency towards H- or J- type aggregation: not exhibit any tendency towards H- or J- type aggregation
[1]; in water
  fluorescence emission (wavelength): 511 nm
  quantum yield: up to 80%
[1]; in water, at 499 nm
  molar absorption coefficient: 38000 M⁻¹ cm⁻¹
[2]
  half-life at 15000 µM: 6 h
